Laboratory results: patent US5376684A, “Aminoalkanephosphinic acids and salts thereof” (Ciba-Geigy Corporation, priority 1991, dated 1994)

Key:
epileptic Wistar rats = settings: cited from earlier work
pyramidal cells = assay: Penicillin-induced "epileptic" hippocampus section preparation; format: cell-based; settings: concentration of 6 μM
Protocol: The novel GABAB -antagonists according to the invention interact at the GABAB -receptor with IC50 values of approximately 10^-8 M (mol/l) and above in the corticocerebral membranes of rats. […] The antagonism towards baclofen can also be shown in vitro in electrophysiological models, for example in the penicillin-induced "epileptic" hippocampus section preparation in which baclofen in a concentration of 6 μM (micromol/liter) inhibits "epilepsy-like" discharges from pyramidal cells. The compounds according to the invention act as antagonists of baclofen action in concentrations of about 10 to about 100 μM (micromol/liter). In vivo the antagonism can be shown by ionto-phoresis of baclofen in rat cerebral cortex and by systemic use of antagonists in doses of from 10 to 100 mg/kg. In doses of about 30 mg/kg, antagonism occurs towards the muscle-relaxant action of baclofen, which is measured in the Rotarod model.

Compound	doses that reduce the spike and wave discharges in dependence upon dosage (epileptic Wistar rats) [mg/kg]	further results
CCC1(C)CC(=O)NC1=O (centres unmarked) [ethosuximide]	≥ 25	–
O=C1NC(=O)C(c2ccccc2)(c2ccccc2)N1 [phenytoin]	–	effect on spike and wave discharges / attacks (epileptic Wistar rats): ineffective or worsen the attacks at higher doses
NCC(CC(=O)O)c1ccc(Cl)cc1 (centres unmarked) [baclofen]	–	effect on "epilepsy-like" discharges from pyramidal cells (pyramidal cells): inhibits
CCC1(c2ccccc2)C(=O)NC(=O)NC1=O [Phenobarbitone]	–	effect at 20 mg/kg (epileptic Wistar rats; 20 mg/kg): ineffective
CN1C(=O)OC(C)(C)C1=O [trimethadione]	≥ 50	–
NC(=O)N1c2ccccc2C=Cc2ccccc21 [Carbamazepine]	–	effect on spike and wave discharges / attacks (epileptic Wistar rats): ineffective or worsen the attacks at higher doses
CCCC(CCC)C(=O)[O-].[Na+] [sodium valproate]	≥ 50	–
CN1C(=O)CN=C(c2ccccc2)c2cc(Cl)ccc21 [diazepam]	≥ 0.5	–
